“Also recorded” adds a separate entry of the source. Read-outs that look alike come from different tables or passages of the source.
Columns and labels:
Format in all cases: cell-based
C. albicans = test: In vitro inhibition of growth of C. albicans
Method: Mogroside II, III, IV, V, VI, 11-o-Mogroside V, and Siamenoside I were also evaluated in vitro for inhibition of growth of C. albicans.

A. actinomycetemcomitans = test: Inhibition of growth of oral bacteria, A. actinomycetemcomitans; conditions: 500 μM
Method: (§1) The concentration of 500 μM of mogroside II, III, IV, V, VI, 11-o-Mogroside V, and Siamenoside I, siraitiflavandiol, rhamnocitrin-3-O-rhamnoside, and kaempferitrin were used to test the inhibition activity against the growth of oral bacteria, A. actinomycetemcomitans and P. gingivalis.

P. gingivalis = test: Inhibition of growth of oral bacteria, P. gingivalis
Method: as §1

Molecule | antimicrobial activity against C. albicans (growth inhibition) (C. albicans; in vitro) | antimicrobial activity against A. actinomycetemcomitans (growth inhibition) (A. actinomycetemcomitans) | antimicrobial activity against P. gingivalis (growth inhibition) (P. gingivalis; 500 μM) | antimicrobial activity against C. albicans (growth inhibition) (C. albicans) | antimicrobial activity against P. gingivalis (growth inhibition) (P. gingivalis)
C[C@H](CC[C@@H](O[C@@H]1O[C@H](CO[C@@H]2O[C@H](CO)[C@@H](O)[C@H](O)[C@H]2O)[C@@H](O)[C@H](O)[C@H]1O[C@@H]1O[C@H](CO)[C@@H](O)[C@H](O)[C@H]1O)C(C)(C)O)[C@H]1CC[C@@]2(C)[C@H]3CC=C4[C@H](CC[C@H](O[C@@H]5O[C@H](CO[C@@H]6O[C@H](CO)[C@@H](O)[C@H](O)[C@H]6O)[C@@H](O)[C@H](O)[C@H]5O[C@@H]5O[C@H](CO)[C@@H](O)[C@H](O)[C@H]5O)C4(C)C)[C@]3(C)[C@H](O)C[C@]12C [mogroside VI] | mogroside II, III, IV, V, and 11-o-Mogroside V showed higher antimicrobial activity than mogroside VI and Siamenoside I | higher antimicrobial activity than mogroside II and III | higher antimicrobial activity than mogroside III |  | 
mogroside II | higher antimicrobial activity than mogroside VI and Siamenoside I | mogroside IV, V, VI, 11-o-Mogroside V showed higher antimicrobial activity than mogroside II and III | higher antimicrobial activity than mogroside III |  | 
C[C@H](CC[C@@H](O[C@@H]1O[C@H](CO)[C@@H](O)[C@H](O)[C@H]1O[C@@H]1O[C@H](CO)[C@@H](O)[C@H](O)[C@H]1O)C(C)(C)O)[C@H]1CC[C@@]2(C)[C@H]3CC=C4[C@@H](CC[C@H](O[C@@H]5O[C@H](CO[C@@H]6O[C@H](CO)[C@@H](O)[C@H](O)[C@H]6O)[C@@H](O)[C@H](O)[C@H]5O)C4(C)C)[C@]3(C)[C@H](O)C[C@]12C [mogroside IV] | higher antimicrobial activity than mogroside VI and Siamenoside I | higher antimicrobial activity than mogroside II and III | higher antimicrobial activity than mogroside III |  | 
C[C@H](CC[C@@H](O[C@@H]1O[C@H](CO[C@@H]2O[C@H](CO)[C@@H](O)[C@H](O)[C@H]2O)[C@@H](O)[C@H](O)[C@H]1O[C@@H]1O[C@H](CO)[C@@H](O)[C@H](O)[C@H]1O)C(C)(C)O)[C@H]1CC[C@@]2(C)[C@@H]3CC=C4[C@@H](CC[C@H](O[C@@H]5O[C@H](CO)[C@@H](O)[C@H](O)[C@H]5O)C4(C)C)[C@]3(C)[C@H](O)C[C@]12C [Siamenoside I] | mogroside II, III, IV, V, and 11-o-Mogroside V showed higher antimicrobial activity than mogroside VI and Siamenoside I |  |  |  | 
C[C@@H]1O[C@@H](Oc2cc(O)c3c(=O)c(O[C@@H]4O[C@@H](C)[C@H](O)[C@@H](O)[C@H]4O)c(-c4ccc(O)cc4)oc3c2)[C@H](O)[C@H](O)[C@H]1O [kaempferitrin] | good activity |  | highest activity |  | 
C[C@H](CC[C@@H](O[C@@H]1O[C@H](CO[C@@H]2O[C@H](CO)[C@@H](O)[C@H](O)[C@H]2O)[C@@H](O)[C@H](O)[C@H]1O[C@@H]1O[C@H](CO)[C@@H](O)[C@H](O)[C@H]1O)C(C)(C)O)[C@H]1CC[C@@]2(C)[C@@H]3CC=C4[C@@H](CC[C@H](O[C@@H]5O[C@H](CO[C@@H]6O[C@H](CO)[C@@H](O)[C@H](O)[C@H]6O)[C@@H](O)[C@H](O)[C@H]5O)C4(C)C)[C@]3(C)[C@H](O)C[C@]12C [mogroside V, Mogroside V] | higher antimicrobial activity than mogroside VI and Siamenoside I | higher antimicrobial activity than mogroside II and III; also recorded: highest activity | higher antimicrobial activity than mogroside III |  | 
C[C@H](CC[C@@H](O[C@@H]1O[C@H](CO[C@@H]2O[C@H](CO)[C@@H](O)[C@H](O)[C@H]2O)[C@@H](O)[C@H](O)[C@H]1O)C(C)(C)O)[C@H]1CC[C@@]2(C)[C@@H]3CC=C4[C@@H](CC[C@H](O[C@@H]5O[C@H](CO)[C@@H](O)[C@H](O)[C@H]5O)C4(C)C)[C@]3(C)[C@H](O)C[C@]12C [mogroside III] | higher antimicrobial activity than mogroside VI and Siamenoside I | mogroside IV, V, VI, 11-o-Mogroside V showed higher antimicrobial activity than mogroside II and III | mogroside II, IV, V, VI, 11-o-Mogroside V showed higher antimicrobial activity than mogroside III |  | 
rhamnocitrin-3-O-rhamnoside |  |  |  | good activity | highest activity
siraitiflavandiol | good activity |  | highest activity |  | 
C[C@H](CC[C@@H](O[C@@H]1O[C@H](CO[C@@H]2O[C@H](CO)[C@@H](O)[C@H](O)[C@H]2O)[C@@H](O)[C@H](O)[C@H]1O[C@@H]1O[C@H](CO)[C@@H](O)[C@H](O)[C@H]1O)C(C)(C)O)[C@H]1CC[C@@]2(C)[C@@H]3CC=C4[C@@H](CC[C@H](O[C@@H]5O[C@H](CO[C@@H]6O[C@H](CO)[C@@H](O)[C@H](O)[C@H]6O)[C@@H](O)[C@H](O)[C@H]5O)C4(C)C)[C@]3(C)C(=O)C[C@]12C [11-o-Mogroside V] | higher antimicrobial activity than mogroside VI and Siamenoside I | higher antimicrobial activity than mogroside II and III | higher antimicrobial activity than mogroside III |  | 
